Laboratory results published in patent US20080146606A1, “NOVEL COMPOUNDS” (priority 2006, published 2008).

Test system: LPS-induced TNFα production
Experiment: LPS-induced TNFα production in rats
Format: in vivo
Details: Rattus norvegicus, po, pretreated orally
Method: Male Lewis rats (180-200 g) from Charles River Breeding Laboratories (Portage) ACUC Protocol#05051 were pretreated orally with compound or vehicle. After a determined pretreatment time, the rats were given LPS (lipopolysaccharide from Escherichia coli Serotype 055-B5, Sigma Chemical Co., St Louis, Mo.) 30 μg/rat in 0.5 ml saline, intraperitoneally. The rats were euthanized by CO2 inhalation 90 minutes after the LPS injection and blood samples were collected by cardiac puncture, transferred into heparinized tubes and stored on ice. The blood samples were centrifuged at 2000 rpm for 10 minutes and the plasma collected for analysis by specific ELISA for TNFα levels.
The plasma samples were assayed for TNFα according to manufactures specifications. TNFα levels were expressed as pg/ml. Elisa kits were purchased from R&D Systems Inc. (Rat TNFα Quantikine Kit Catalog#RTA00).

SMILES: O=S(=O)(NCCO)c1ccc(-c2ccnc3[nH]c(C4CC4)cc23)cc1 [Example 145a, 4-(2-Cyclopropyl-1H-pyrrolo[2,3-b]pyridin-4-yl)-N-(2-hydroxyethyl)-benzenesulfonamide]
- ED50: < 20 mg/kg
